Earlier results as cited in patent US12029808B2, “Kit and method for dyeing keratinous material by means of aminosilicone and a chromophoric compound” (Henkel AG & Co. KGaA, priority 2019, dated 2024).

Conditions: 25° C.

Molecule | solubility in water | solubility in water (in words)
O=C([O-])c1c(Cl)c(Cl)c(Cl)c(Cl)c1-c1c2c(Br)cc(=O)c(Br)c-2oc2c(Br)c(O)cc(Br)c12.O=C([O-])c1c(Cl)c(Cl)c(Cl)c(Cl)c1-c1c2c(Br)cc(=O)c(Br)c-2oc2c(Br)c(O)cc(Br)c12.[Na+].[Na+] [Acid Red 92, disodium salt of 3,4,5,6-tetrachloro-2-(1,4,5,8-tetrabromo-6-hydroxy-3-oxoxanthen-9-yl)benzoic acid] | greater than 10 g/L | 
Nc1cc(S(=O)(=O)[O-])cc2cc(S(=O)(=O)[O-])c(N=Nc3ccccc3)c(O)c12.[Na+].[Na+] [Acid Red 33, diantrium salt of 5-amino-4-hydroxy-3-(phenylazo)-naphthalene-2,7-disulphonate] | 2.5 mg/mL | 
O=S(=O)([O-])c1ccc(N=Nc2c(O)ccc3ccccc23)cc1.[Na+] [Acid Orange 7, sodium salt of 4-[(2-hydroxy-1-naphthyl)azo]benzene sulphonate] | more than 7 g/L | 

Next, values leading:

solubility in water | solubility in water (in words) | Molecule
more than 20 wt. % |  | CCN(Cc1cccc(S(=O)(=O)[O-])c1)c1ccc(C(=C2C=CC(=[N+](CC)Cc3cccc(S(=O)(=O)[O-])c3)C=C2)c2ccccc2S(=O)(=O)[O-])cc1.[Na+].[Na+] [Acid Blue 9]
 | highly soluble in water | O=C([O-])C1=NN(c2ccc(S(=O)(=O)[O-])cc2)C(=O)C1N=Nc1ccc(S(=O)(=O)[O-])cc1.[Na+].[Na+].[Na+] (stereo not drawn) [Acid Yellow 23, trisodium salt of 4,5-dihydro-5-oxo-1-(4-sulfophenyl)-4-((4-sulfophenyl)azo)-1H-pyrazole-3-carboxylic acid]
20 mg/mL |  | mixture of the sodium salts of mono- and sisulfonic acids of 2-(2-quinolyl)-1H-indene-1,3(2H)-dione [Acid Yellow 3]
